# Test results taken from patent US8097635B2, “Insulin resistance improving agent” (Kyowa Hakko Bio Co., Ltd., priority 2006, dated 2012).
# Experiments:
# Type in all cases: in vivo
# [1] = Body weight of type II diabetes model mice, Test Example 1; conditions: for Body weight: 10 mL/kg orally once a day
# From the text: Twenty seven (27) BKS. Cg-+Lepr^db/+Lepr^db/JcI mice (Clea Japan Inc., female, 7 week old), which were type II diabetes model mice expressing the symptoms of hyperinsulinemia due to insulin resistance, were divided into 3 groups each consisting of 9 mice. The groups were designated as group 1, group 2, and group 3.
# Mice of the groups 1 to 3 were fed with free access to pellets CE-2 (Clea Japan Inc.; hereinafter referred to as “CE-2”) for feeding mice and rats. To the mice of group 1, 0.5 w/v % methyl cellulose (0.5 w/v % methyl cellulose 400 cP solution, sterilized, produced by Wako Pure Chemical Industries, Ltd. for biochemistry; hereinafter referred to as “0.5% MC”) was administered orally once a day (10 mL/kg). To the mice of group 2, a pyrroloquinoline quinone disodium salt (hereinafter referred to as “PQQ disodium salt,” produced by Mitsubishi Gas Chemical Company, Inc.) suspended in 0.5% MC to a concentration of 0.5 mg/mL was administered orally once a day (10 mL/kg). To the mice of group 3, a PQQ disodium salt suspended in 0.5% MC to a concentration of 2 mg/mL was administered orally once a day (10 mL/kg).
# [2] = system: BKS. Cg-+Lepr^db/+Lepr^db/JcI mice (type II diabetes model mice); assay: Fasting serum insulin concentration on day 32, Test Example 1; conditions: for Insulin concentration: day 32 after initiation of test, 10 mL/kg orally once a day
# From the text: Twenty seven (27) BKS. Cg-+Lepr^db/+Lepr^db/JcI mice (Clea Japan Inc., female, 7 week old), which were type II diabetes model mice expressing the symptoms of hyperinsulinemia due to insulin resistance, were divided into 3 groups each consisting of 9 mice. The groups were designated as group 1, group 2, and group 3. Mice of the groups 1 to 3 were fed with free access to pellets CE-2 (Clea Japan Inc.; hereinafter referred to as “CE-2”) for feeding mice and rats. To the mice of group 1, 0.5 w/v % methyl cellulose (0.5 w/v % methyl cellulose 400 cP solution, sterilized, produced by Wako Pure Chemical Industries, Ltd. for biochemistry; hereinafter referred to as “0.5% MC”) was administered orally once a day (10 mL/kg). To the mice of group 2, a pyrroloquinoline quinone disodium salt (hereinafter referred to as “PQQ disodium salt,” produced by Mitsubishi Gas Chemical Company, Inc.) suspended in 0.5% MC to a concentration of 0.5 mg/mL was administered orally once a day (10 mL/kg). To the mice of group 3, a PQQ disodium salt suspended in 0.5% MC to a concentration of 2 mg/mL was administered orally once a day (10 mL/kg). Blood was collected from the orbital veins on day 14 and day 28 after the initiation of the test, and thus serum was obtained. Nonfasting blood serum glucose levels and nonfasting serum insulin concentrations were separately measured using a glucose C-II Test Wako (produced by Wako Pure Chemical Industries, Ltd.) and a Mouse Insulin ELISA Kit (S-type) (produced by Shibayagi Co., Ltd.), respectively. […] Blood glucose levels were measured using a Medisafe Reader GR-101 (produced by Terumo Corporation). […] Blood serum glucose levels and serum insulin concentrations were separately measured using a glucose C-II Test Wako and a Mouse Insulin ELISA Kit (S-type), respectively. The results were expressed as average levels±standard deviation (n=9). […]
# [3] = system: BKS. Cg-+Lepr^db/+Lepr^db/JcI mice (type II diabetes model mice); assay: Fasting blood serum glucose level on day 32, Test Example 1; conditions: for Blood glucose level: fasting, day 32 after initiation of test, 10 mL/kg orally once a day; for Fasting blood glucose levels compared with group 1 (0.5% MC): day 32
# From the text: (§1) Twenty seven (27) BKS. Cg-+Lepr^db/+Lepr^db/JcI mice (Clea Japan Inc., female, 7 week old), which were type II diabetes model mice expressing the symptoms of hyperinsulinemia due to insulin resistance, were divided into 3 groups each consisting of 9 mice. The groups were designated as group 1, group 2, and group 3. Mice of the groups 1 to 3 were fed with free access to pellets CE-2 (Clea Japan Inc.; hereinafter referred to as “CE-2”) for feeding mice and rats. To the mice of group 1, 0.5 w/v % methyl cellulose (0.5 w/v % methyl cellulose 400 cP solution, sterilized, produced by Wako Pure Chemical Industries, Ltd. for biochemistry; hereinafter referred to as “0.5% MC”) was administered orally once a day (10 mL/kg). To the mice of group 2, a pyrroloquinoline quinone disodium salt (hereinafter referred to as “PQQ disodium salt,” produced by Mitsubishi Gas Chemical Company, Inc.) suspended in 0.5% MC to a concentration of 0.5 mg/mL was administered orally once a day (10 mL/kg). To the mice of group 3, a PQQ disodium salt suspended in 0.5% MC to a concentration of 2 mg/mL was administered orally once a day (10 mL/kg). Blood was collected from the orbital veins on day 14 and day 28 after the initiation of the test, and thus serum was obtained. Nonfasting blood serum glucose levels and nonfasting serum insulin concentrations were separately measured using a glucose C-II Test Wako (produced by Wako Pure Chemical Industries, Ltd.) and a Mouse Insulin ELISA Kit (S-type) (produced by Shibayagi Co., Ltd.), respectively. After 18 hours of fasting from day 28 to day 29 after the initiation of the test, a 40% (w/v) glucose aqueous solution was administered orally to each mouse at 2 g/kg B.W., so as to load the mice with glucose (to test the glucose tolerance). Blood was collected from tail veins at the time of administration of a glucose aqueous solution (0 minute) and then at a certain time point after administration (120 minutes). Blood glucose levels were measured using a Medisafe Reader GR-101 (produced by Terumo Corporation). […] Blood serum glucose levels and serum insulin concentrations were separately measured using a glucose C-II Test Wako and a Mouse Insulin ELISA Kit (S-type), respectively. The results were expressed as average levels±standard deviation (n=9). Statistical significance levels (p-values) were found by a t-test (group 1 with respect to group 2; and group 1 with respect to group 3).
# [4] = system: BKS. Cg-+Lepr^db/+Lepr^db/JcI mice (type II diabetes model mice); assay: Nonfasting serum insulin concentration, Test Example 1; conditions: for Serum insulin concentration: non-fasting, 10 mL/kg orally once a day
# From the text: as §1
# [5] = system: type II diabetes model KK-AY/Ta JcI mice; assay: Glucose tolerance test, Test Example 2; conditions: for Blood glucose level: glucose tolerance test day 15, glucose 1 g/kg orally after 18 h fasting, 10 mL/kg orally once a day; for Blood glucose levels in glucose tolerance test compared with group 1 (0.5% MC): 30, 60 and 120 minutes after glucose
# Experimental: Eighteen type II diabetes model KK-AY/Ta JcI mice (Clea Japan Inc., male, 6 week old) were divided into 3 groups (6 mice in group 1, 7 mice in group 2, and 5 mice in group 3). The groups were designated as group 1, group 2, and group 3, respectively. Mice of the groups 1 to 3 were fed with free access to pellets CE-2 for feeding mice and rats. To the mice of group 1, 0.5% MC was administered orally once a day (10 mL/kg). To the mice of group 2, a PQQ disodium salt suspended in 0.5% MC to a concentration of 0.5 mg/mL was administered orally once a day (10 mL/kg). To the mice of group 3, a PQQ disodium salt suspended in 0.5% MC to a concentration of 2 mg/mL was administered orally once a day (10 mL/kg). After 18 hours of fasting from day 14 to day 15 after the initiation of the test, a 10% (w/v) glucose aqueous solution was administered orally to each mouse at 1 g/kg B.W., so as to load the mice with glucose to test the glucose tolerance. Blood was collected from tail veins at 0 minutes, 30 minutes, 60 minutes, and 120 minutes after administration of the glucose aqueous solution. Blood glucose levels were measured using a Medisafe Reader GR-101 (produced by Terumo Corporation). […] Blood glucose levels were expressed as average levels±standard deviation (n=5-7) and statistical significance levels (p-values) were found by a t-test (group 1 with respect to group 2; and group 1 with respect to group 3).
# [6] = system: BKS. Cg-+Lepr^db/+Lepr^db/JcI mice (type II diabetes model mice); assay: Test Example 1 overall conclusion (insulin resistance, type II diabetes, body weight); conditions: Test Example 1, oral once a day for about 32 days
# From the text: Twenty seven (27) BKS. Cg-+Lepr^db/+Lepr^db/JcI mice (Clea Japan Inc., female, 7 week old), which were type II diabetes model mice expressing the symptoms of hyperinsulinemia due to insulin resistance, were divided into 3 groups each consisting of 9 mice. The groups were designated as group 1, group 2, and group 3. Mice of the groups 1 to 3 were fed with free access to pellets CE-2 (Clea Japan Inc.; hereinafter referred to as “CE-2”) for feeding mice and rats. To the mice of group 1, 0.5 w/v % methyl cellulose (0.5 w/v % methyl cellulose 400 cP solution, sterilized, produced by Wako Pure Chemical Industries, Ltd. for biochemistry; hereinafter referred to as “0.5% MC”) was administered orally once a day (10 mL/kg). […] Nonfasting blood serum glucose levels and nonfasting serum insulin concentrations were separately measured using a glucose C-II Test Wako (produced by Wako Pure Chemical Industries, Ltd.) and a Mouse Insulin ELISA Kit (S-type) (produced by Shibayagi Co., Ltd.), respectively. […] Blood glucose levels were measured using a Medisafe Reader GR-101 (produced by Terumo Corporation). […] Blood serum glucose levels and serum insulin concentrations were separately measured using a glucose C-II Test Wako and a Mouse Insulin ELISA Kit (S-type), respectively. The results were expressed as average levels±standard deviation (n=9). […]
# [7] = system: BKS. Cg-+Lepr^db/+Lepr^db/JcI mice (type II diabetes model mice); assay: Nonfasting blood serum glucose level, Test Example 1; conditions: for Blood glucose level: non-fasting, 10 mL/kg orally once a day
# From the text: as §1
# [8] = system: BKS. Cg-+Lepr^db/+Lepr^db/JcI mice (type II diabetes model mice); assay: Glucose tolerance test, Test Example 1; conditions: for Blood glucose level: glucose tolerance test day 29, glucose 2 g/kg orally after 18 h fasting, 10 mL/kg orally once a day
# From the text: as §1
# [9] = group 2 (0.5 mg/mL, 10 mL/kg orally once a day)
# [10] = group 3 (2 mg/mL, 10 mL/kg orally once a day)
# [11] = group 2: 0.5 mg/mL, day 14 after initiation of test
# [12] = group 2: 0.5 mg/mL, day 28 after initiation of test
# [13] = group 3: 2 mg/mL, day 14 after initiation of test
# [14] = group 3: 2 mg/mL, day 28 after initiation of test
compound,measurement,setting,value
"O=C(O)c1cc(C(=O)O)c2c(n1)C(=O)C(=O)c1cc(C(=O)O)[nH]c1-2.[Na].[Na] [PQQ disodium salt, pyrroloquinoline quinone disodium salt]",Body weight,"[1]; group 2: 0.5 mg/mL in 0.5% MC, day 0 (test initiated)",29.90 ± 0.37 g
same,Body weight,"[1]; group 2: 0.5 mg/mL in 0.5% MC, day 31",37.18 ± 0.65 g
same,Body weight,"[1]; group 3: 2 mg/mL in 0.5% MC, day 0 (test initiated)",29.93 ± 0.51 g
same,Body weight,"[1]; group 3: 2 mg/mL in 0.5% MC, day 31",39.01 ± 1.07 g
same,Body weights compared with group 1 (0.5% MC),"[1]; groups 2 and 3 (0.5 and 2 mg/mL, 10 mL/kg orally once a day), after completion of the test",almost the same as those of group 1
same,Insulin concentration,[2]; group 2: 0.5 mg/mL,4.88 ± 0.75 ng/mL
same,Insulin concentration,[2]; group 3: 2 mg/mL,4.4 ± 0.66 ng/mL
same,Serum insulin concentrations compared with group 1 (0.5% MC),"[2]; groups 2 and 3 (0.5 and 2 mg/mL, 10 mL/kg orally once a day), day 32",lower than those of group 1
same,Blood glucose level,[3]; group 2: 0.5 mg/mL,617.7 ± 39.1 mg/dL
same,Blood glucose level,"[3]; group 3: 2 mg/mL, *p < 0.05 with respect to group 1",575.6 ± 33.3* mg/dl
same,Fasting blood glucose levels compared with group 1 (0.5% MC),[3]; [9],lower than those of group 1
same,Fasting blood glucose levels compared with group 1 (0.5% MC),[3]; [10],significantly lower than those of group 1
same,Serum insulin concentrations compared with group 1 (0.5% MC),"[4]; groups 2 and 3 (0.5 and 2 mg/mL, 10 mL/kg orally once a day), day 14 and 28",lower than those of group 1
same,Serum insulin concentration,[4]; [11],4.02 ± 0.75 ng/mL
same,Serum insulin concentration,[4]; [12],3.02 ± 0.47 ng/mL
same,Serum insulin concentration,[4]; [13],6.23 ± 1.69 ng/mL
same,Serum insulin concentration,[4]; [14],4.82 ± 1.81 ng/mL
same,Overall effect on type II diabetes,"[5]; Test Example 2, model mice with a gene mutation differing from test example 1",exerts a therapeutic effect on type II diabetes
same,Blood glucose level,"[5]; group 2: 0.5 mg/mL, 0 minutes",116.7 ± 10.1 mg/dL
same,Blood glucose level,"[5]; group 2: 0.5 mg/mL, 30 minutes, ***p < 0.001 with respect to group 1",274.9 ± 8.4*** mg/dl
same,Blood glucose level,"[5]; group 2: 0.5 mg/mL, 60 minutes, *p < 0.05 with respect to group 1",264.6 ± 7.6* mg/dl
same,Blood glucose level,"[5]; group 2: 0.5 mg/mL, 120 minutes, **p < 0.01 with respect to group 1",184.3 ± 7.8** mg/dl
same,Blood glucose level,"[5]; group 3: 2 mg/mL, 0 minutes",117.0 ± 12.2 mg/dL
same,Blood glucose level,"[5]; group 3: 2 mg/mL, 30 minutes",300.0 ± 24.1 mg/dL
same,Blood glucose level,"[5]; group 3: 2 mg/mL, 60 minutes",261.6 ± 25.6 mg/dL
same,Blood glucose level,"[5]; group 3: 2 mg/mL, 120 minutes",187.4 ± 20.3 mg/dL
same,Blood glucose levels in glucose tolerance test compared with group 1 (0.5% MC),[5]; [9],significantly lower than those of group 1
same,Blood glucose levels in glucose tolerance test compared with group 1 (0.5% MC),[5]; [10],lower than those of group 1
same,"Overall effect on insulin resistance, type II diabetes and body weight",[6],exerts an effect of improving insulin resistance and a therapeutic effect on type II diabetes without body weight gain
same,Non-fasting blood glucose levels compared with group 1 (0.5% MC),"[7]; groups 2 and 3 (0.5 and 2 mg/mL, 10 mL/kg orally once a day), day 14 and day 28",lower than those of group 1
same,Blood glucose level,[7]; [11],427.7 ± 11.4 mg/dL
same,Blood glucose level,[7]; [12],531.5 ± 12.3 mg/dL
same,Blood glucose level,[7]; [13],405.7 ± 24.1 mg/dL
same,Blood glucose level,[7]; [14],546.1 ± 26.0 mg/dL
same,Blood glucose level,"[8]; group 2: 0.5 mg/mL, 0 minute",281.3 ± 16.3 mg/dL
same,Blood glucose level,"[8]; group 2: 0.5 mg/mL, 120 minutes",522.0 ± 22.9 mg/dL
same,Blood glucose level,"[8]; group 3: 2 mg/mL, 0 minute",303.4 ± 25.9 mg/dL
same,Blood glucose level,"[8]; group 3: 2 mg/mL, 120 minutes",489.3 ± 47.5 mg/dL
same,Blood glucose levels in glucose tolerance test compared with group 1 (0.5% MC),"[8]; groups 2 and 3 (0.5 and 2 mg/mL, 10 mL/kg orally once a day), 120 minutes after glucose",lower than those of group 1
